Test system: P12-Ichikawa
Assay: cell viability relative to DMSO control; higher = less cytotoxic
Conditions: 48 h
Method in brief: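 Leukemia cells (NOMO1 or SEM, 500 cells/well; P12-Ichikawa, 1000 cells/well) were seeded in 5 μl in 1536-well plates after at least four passages of adaptation to each medium. They received library compounds in DMSO by pin dosing, 11 threefold points from 47 μM to 0.79 nM. Luminescence with CellTiter-Glo One was read after 48 h at 37°C. Viability is stated per plate relative to DMSO wells, with cell-free wells as background.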

[1] = HPLM + 10% dialyzed FBS, 0.000781 µM
[2] = HPLM + 10% dialyzed FBS, 0.00234 µM
[3] = HPLM + 10% dialyzed FBS, 0.00702 µM
[4] = HPLM + 10% dialyzed FBS, 0.0211 µM
[5] = HPLM + 10% dialyzed FBS, 0.0632 µM
[6] = HPLM + 10% dialyzed FBS, 0.19 µM
[7] = HPLM + 10% dialyzed FBS, 0.569 µM
[8] = HPLM + 10% dialyzed FBS, 1.71 µM
[9] = HPLM + 10% dialyzed FBS, 5.12 µM
[10] = HPLM + 10% dialyzed FBS, 15.4 µM
[11] = HPLM + 10% dialyzed FBS, 46.1 µM
[12] = RPMI 5 mM glucose + 10% FBS, 0.000781 µM
[13] = RPMI 5 mM glucose + 10% FBS, 0.00234 µM
[14] = RPMI 5 mM glucose + 10% FBS, 0.00702 µM
[15] = RPMI 5 mM glucose + 10% FBS, 0.0211 µM
[16] = RPMI 5 mM glucose + 10% FBS, 0.0632 µM
[17] = RPMI 5 mM glucose + 10% FBS, 0.19 µM
[18] = RPMI 5 mM glucose + 10% FBS, 0.569 µM
[19] = RPMI 5 mM glucose + 10% FBS, 1.71 µM
[20] = RPMI 5 mM glucose + 10% FBS, 5.12 µM
[21] = RPMI 5 mM glucose + 10% FBS, 15.4 µM
[22] = RPMI 5 mM glucose + 10% FBS, 46.1 µM
[23] = RPMI 5 mM glucose + 10% dialyzed FBS, 0.000781 µM
[24] = RPMI 5 mM glucose + 10% dialyzed FBS, 0.00234 µM
[25] = RPMI 5 mM glucose + 10% dialyzed FBS, 0.00702 µM
[26] = RPMI 5 mM glucose + 10% dialyzed FBS, 0.0211 µM
[27] = RPMI 5 mM glucose + 10% dialyzed FBS, 0.0632 µM
[28] = RPMI 5 mM glucose + 10% dialyzed FBS, 0.19 µM
[29] = RPMI 5 mM glucose + 10% dialyzed FBS, 0.569 µM
[30] = RPMI 5 mM glucose + 10% dialyzed FBS, 1.71 µM
[31] = RPMI 5 mM glucose + 10% dialyzed FBS, 5.12 µM
[32] = RPMI 5 mM glucose + 10% dialyzed FBS, 15.4 µM
[33] = RPMI 5 mM glucose + 10% dialyzed FBS, 46.1 µM

| Compound | cell viability [1] | cell viability [2] | cell viability [3] | cell viability [4] | cell viability [5] | cell viability [6] | cell viability [7] | cell viability [8] | cell viability [9] | cell viability [10] | cell viability [11] | cell viability [12] | cell viability [13] | cell viability [14] | cell viability [15] | cell viability [16] | cell viability [17] | cell viability [18] | cell viability [19] | cell viability [20] | cell viability [21] | cell viability [22] | cell viability [23] | cell viability [24] | cell viability [25] | cell viability [26] | cell viability [27] | cell viability [28] | cell viability [29] | cell viability [30] | cell viability [31] | cell viability [32] | cell viability [33] |
| --- | --- | --- | --- | --- | --- | --- | --- | --- | --- | --- | --- | --- | --- | --- | --- | --- | --- | --- | --- | --- | --- | --- | --- | --- | --- | --- | --- | --- | --- | --- | --- | --- | --- |
| C[C@H]1CCC/C=C/C2C[C@H](O)C[C@H]2[C@H](O)/C=C/C(=O)O1 (some centres not stated) | 90.4% | 102% | 94.8% | 70.4% | 32.8% | 18.7% | 9.39% | 4.66% | 2.87% | 2.17% | 2.02% | 74% | 75.3% | 81.5% | 60.1% | 10.9% | 9.73% | 6.57% | 4.48% | 1.69% | 1.14% | 1.83% | 104% | 81.9% | 86.1% | 62.7% | 12.7% | 12.8% | 6.09% | 4.16% | 3.23% | 2.71% | 1.83% |
| C[C@H]1[C@@H](CC(C[C@H]2O[C@@H]3O[C@]4(C)CC[C@H]5[C@H](C)CC[C@@H]([C@H]2C)[C@@]35OO4)C[S+](=O)([O-])c2ccc(COC(=O)N(C)C)cc2)O[C@@H]2O[C@]3(C)CC[C@H]4[C@H](C)CC[C@@H]1[C@@]24OO3 | 114% | 111% | 103% | 117% | 110% | 102% | 85.5% | 55.5% | 49.7% | 39% | 13.8% | 114% | 122% | 113% | 122% | 113% | 116% | 81.7% | 52% | 53.2% | 33.5% | 21.8% | 118% | 110% | 107% | 110% | 103% | 106% | 50.7% | 41.7% | 36.9% | 39.7% | 35% |
| O=C(NC1CC1)c1cccc(-c2ccc3c(NC(=O)C4CC4)n[nH]c3c2)c1 | 109% | 109% | 108% | 113% | 114% | 113% | 112% | 112% | 95.2% | 39.5% | 13.1% | 111% | 114% | 113% | 127% | 121% | 124% | 110% | 113% | 101% | 43.5% | 12.6% | 110% | 120% | 118% | 121% | 118% | 116% | 114% | 112% | 102% | 55.3% | 24.5% |
| C[Se]CCC(N)C(=O)O (configuration not stated) | 88.7% | 86.3% | 89.6% | 84.9% | 88.4% | 85.1% | 87.4% | 88.7% | 78.8% | 78.8% | 78.6% | 77.1% | 84.8% | 81.9% | 82.6% | 85.9% | 84.4% | 81.6% | 79.6% | 83.1% | 79% | 75.6% | 85.9% | 77.2% | 83.2% | 85.1% | 88.2% | 85.8% | 74.9% | 76.4% | 80.7% | 78.1% | 79% |
| NC12CC3CC(CC(C3)C1)C2 | 109% | 98.8% | 103% | 103% | 105% | 111% | 108% | 103% | 117% | 114% | 105% | 102% | 119% | 118% | 120% | 119% | 123% | 112% | 113% | 110% | 109% | 107% | 104% | 113% | 109% | 111% | 115% | 116% | 115% | 118% | 115% | 105% | 103% |
| CCOC(=O)c1ncn2c1CN(C)C(=O)c1cc(F)ccc1-2 | 120% | 113% | 113% | 117% | 107% | 107% | 111% | 106% | 72% | 67.7% | 62% | 106% | 113% | 109% | 114% | 116% | 126% | 103% | 106% | 92.2% | 71.7% | 48.9% | 112% | 119% | 107% | 119% | 123% | 113% | 116% | 102% | 84.8% | 74.4% | 46.7% |
| CC(C)c1ccc2oc3nc(N)c(C(=O)O)cc3c(=O)c2c1 | 120% | 119% | 119% | 124% | 130% | 132% | 128% | 131% | 125% | 129% | 118% |  |  |  |  |  |  |  |  |  |  |  |  |  |  |  |  |  |  |  |  |  |  |
| CCC(=O)O[C@@]1([C@H](C)C[C@H]2[C@@H]3C[C@H](F)\C4=C\C(=O)\C=C/[C@]4(C)[C@@]3(F)[C@@H](O)C[C@]12C)C(=O)SCF | 101% | 112% | 88% | 75.6% | 69.2% | 64.8% | 70.6% | 71.5% | 65.9% | 69.8% | 66.2% | 120% | 119% | 86.3% | 76.5% | 74.7% | 68.8% | 68.2% | 58.9% | 59.2% | 55.1% | 59.9% | 95.9% | 100% | 71.3% | 55.5% | 54.4% | 55.1% | 53.6% | 49.6% | 51.1% | 48.6% | 46.7% |
